Assay results reported in patent US20220304945A1, “METHODS OF TREATING METABOLIC SYNDROME RELATED CONDITIONS USING RETINOIC ACID RECEPTOR AGONISTS” (Cornell University, priority 2014, published 2022).
Entries after “also recorded” stand apart in the source; their conditions may differ.

Tests used:
Type in all cases: in vivo, mouse
HFD-fed C57/BL6 mice = assay: Acute administration (8 days) to HFD-fed mice: body weight, intake, random glucose, GTT, ITT
Procedure: FIG. 31. Acute administration of Retinoic Acid Receptor β (RARβ) agonist AC261066 reverses high fat induced glucose intolerance and insulin resistance. A-C) Body weights, water and food intake of wild type C57/B16 male mice after 3 months of being fed either: a standard chow (13% Kcal/fat) diet (Wt Con, n=4), a high fat (45% Kcal/fat) diet (HFD, n=4) or 3 months of a HFD mice plus 8 days of administration of the RARβ agonist AC261066 (n=4) in their drinking water at a dose of 5.4 mg/Kg BW/day. On day 8 mice were tested for glucose intolerance and insulin resistance. D and E) Random glucose and glucose tolerance test (GTT) of mice described in A. F) Insulin tolerance test of mice described in A.
Metabolic Measurements-Glucose tolerance was performed using an intraperitoneal glucose tolerance test (GTT) as previously described (Trasino et al., Vitamin A Deficiency Causes Hyperglycemia and Loss of Pancreatic β-Cell Mass, J Biol Chem. 2014 Dec. 1. pii: jbc.M114.616763). […] Tail vein blood glucose was measured at 20, 40, 60 and 120 minutes after injection using a FreeStyle Lite Blood Glucose Monitoring System (Abbott Diabetes Care, Inc. Alameda, Calif.). To determine insulin secretion responses to glucose, serum fractions were isolated between 0-60 minutes post glucose injections and insulin concentrations were measured using an Ultrasensitive Insulin ELISA Kit (Alpco, Inc. Salem, N.H.). […]

c-peptide = assay: c-peptide/glucagon immunofluorescence of pancreatic islets, HF-fed mice; details: HF diet mice 4 months; vs HF diet
Procedure: Indirect Immunofluorescence. Immunofluorescence assays on cells and tissue sections were performed as previously described (29). Briefly, differentiated samples were fixed using 4% (w/v) paraformaldehyde and membrane permeabilization (for cells only) was done with 0.3% (w/v) Triton-X 100 (Sigma). Unspecific sites were blocked using 2% BSA for 30 min prior to incubation with rabbit polyclonal anti-PDX1 (Millipore, 06-1379, 1:1000), rabbit anti-C-Peptide (Cell Signaling, 4593, 1:500, Danvers, Mass.) and mouse monoclonal anti-Glucagon (Abcam, ab10988, 1:200) primary antibodies. Phalloidin-TRITC (Millipore, FAK100, 1:1000, Billerica, Mass.) was used to stain the actin stress fiber network (F-actin). Nuclei were stained using DAPI contained in Vectashield® mounting medium for fluorescence (Vector labs, Burlingame, Calif.). Quantitation of C-peptide positive stained cells and islet surface area was performed using NIS-Elements Advanced Research software (Nikon).
Mice, diet, and drug treatment. WT male C57/BL6 male mice were maintained on either a standard laboratory chow-fed diet (CFD) with 13% kcal fat, (diet #5053, Lab Diet, Inc, St. Louis, Mo.) or a high fat, western style diet (HFD) with 60% kcals from fat, (diet #58126, Lab Diet, Inc., St. Louis, Mo.) for 4 months. […]

HF-fed C57/BL6 mice = assay: HF-fed mice treated 3 months: body weight, GTT, fasting glucose (Example 22)
Procedure: METHODS. Preparation of RARβ agonists solution. AC261066 and AC55649 were dissolved in dimethyl sulfoxide (DMSO) at the concentration of 3.0 mg/ml and diluted in the drinking water for mice to the final concentration of 3.0-mg/100 ml. Mice, diet, and drug treatments. Wt male C57/BL6 male mice were maintained on either a standard laboratory chow-fed diet (Con) with 13% kcal fat, (diet #5053, Lab Diet, Inc, St. Louis, Mo., [n=4]) or a high fat, western style diet (HFD) with 45% kcals from fat, (diet #58126, Lab Diet, Inc., St. Louis, Mo.) for 3 months. Two weeks after the start of the HFD treatment, the HFD group was further split into 3 groups for 3 months: i) HFD and drinking water containing 1% DMSO (n=5); ii) high fat diet (HFD) and drinking water containing 3.0 mg/100 ml AC261066, a specific RARβ agonist (n=5) or iii) HFD and drinking water containing 3.0 mg/100 ml AC55649, a specific RARβ agonist (n=4). After 3 months the mice were tested for glucose intolerance with an intra-peritoneal glucose tolerance test (GTT). Mice were then sacrificed by cervical dislocation. Blood and various tissue samples were harvested.
Glucose Tolerance Test (GTT). Glucose tolerance was performed using an intraperitoneal glucose tolerance test (GTT). Mice were fasted overnight (˜16 hrs) followed by intra-peritoneal injections (n=3-5 per group) of 50% glucose in PBS at 2.0 g of glucose/kg of body weight. Tail vein blood was collected at 15, 30, 45, 60, and 120 minutes post-injection for glucose measurements using a FreeStyle Lite Blood Glucose Monitoring System (Abbott Diabetes Care, Inc. Alameda, Calif.). Random and fasting blood glucose measurements were taken from tail veins of 4 mice per group at 2-3 random time points daily or just prior to GTT. Means are expressed as ±standard error of the mean (S.E.M) and P-values were calculated using one-way analysis of variance followed by Bonferroni post-hoc analysis. Grubbs' maximum normal residual test was used for detection of one or more outliers.

RARβ2 mRNA = assay: Semi-quantitative PCR of pancreas, HF-fed mice; details: HF diet mice; vs HF-vehicle
Description: Mice, diet, and drug treatment. WT male C57/BL6 male mice were maintained on either a standard laboratory chow-fed diet (CFD) with 13% kcal fat, (diet #5053, Lab Diet, Inc, St. Louis, Mo.) or a high fat, western style diet (HFD) with 60% kcals from fat, (diet #58126, Lab Diet, Inc., St. Louis, Mo.) for 4 months. One month after the start of the high fat diet treatment, the high fat diet group was further split into 2 groups for 3 months: i) high fat diet and the drinking water containing 1% DMSO; ii) high fat diet and the drinking water containing 1.5 mg/100 ml AC261066, a specific RARβ agonist. Then mice were sacrificed by cervical dislocation. Blood and various tissue samples were harvested.
Semi-Quantitate PCR. Total RNA was extracted from mouse tissues using TRIzol reagent (Life technologies) and (1 μg) was used to synthesize cDNA. cDNA synthesis was performed at 42° C. for 1 h in a final volume of 20 μl using qScript (Quanta, MD). Semi-quantitative PCR were performed Taq DNA polymerase (Invitrogen, CA). Three step PCR was run as follows: 94° C. for 30 s, 58-64° C. for 45 s for primer annealing and 72° C. for 1 min for primer extension. The number of cycles for each primer pair for amplification in the linear range was determined experimentally. PCR products were resolved on 2% agarose gels and visualized by staining with ehtidium bromide. […]

CCCCOCCOc1nc(-c2ccc(C(=O)O)c(F)c2)sc1C [AC261066]
random glucose levels (HFD-fed C57/BL6 mice; after 24 hours of administration): significant reductions
hyperglycemia (glucose intolerance) and insulin resistance (HFD-fed C57/BL6 mice; after 8 days of administration): reverses; also recorded: significant reductions
c-peptide level in pancreatic islets (c-peptide): slightly reduces; also recorded: slightly decreased
glucose tolerance and area under the curve glucose (HF-fed C57/BL6 mice): improved
overnight fasting glucose levels (HF-fed C57/BL6 mice): significant reductions
decrease in body weights compared to HF-fed mice (HF-fed C57/BL6 mice; 3.0 mg/100 ml drinking water): ~10%
pancreatic RARβ2 mRNA level (RARβ2 mRNA): increased
